Where a SMILES comes first, the peptide text is derived from it. [ ]: non-standard residue; d: D form.

The test system of series [1] is E. faecalis OG1RF. Put plainly: Triton X-100 induced bacterial autolysis assay. In kind it is cell-based, Enterococcus faecalis. The following applies: PBS with 0.05% Triton X-100, peptide 100 mg/L, OD600 for 180 min. How it is done: (§1) The lysis assay followed an established protocol for bacterial autolysis with minor modifications. Exponentially growing cells were washed twice in PBS then washed once in ice-cold dH2O. The bacteria were incubated in PBS with 0.05% Triton X-100 and peptides at a concentration of 100 mg/L. OD600 was monitored spectrophotometrically for 180 min. In some experiments, the cells were incubated with the peptides for 2h in PBS+0.05% Triton X-100 and then cultured on THA to enumerate surviving cells.
(§2) Fig 2 Effect of GL13K peptides on Triton X-100 induced autolysis. E. faecalis OG1RF (A) or the autolysis-deficient strain TX5128 (B) were incubated in PBS with 0.05% Triton X-100 in the absence of peptide (control) or in the presence of 100 mg/L of L-GL13K or D-GL13K (D). The OD600 was recorded for 180 min and expressed as a percent of starting OD600 of the control sample. (C): Bactericidal activity of GL13K peptides in PBS+0.05% Triton X-100. E. faecalis OG1RF were incubated with 0.05% Triton X-100 in the absence of peptide (Ctrl) or with L-GL13K or D-GL13K for 2h. Surviving CFU were enumerated and are shown as mean ± SEM (N = 5). Peptide treated samples were compared to the untreated control by Kruskal-Wallis test with Dunn’s multiple comparison post-test. n.s., not significant.

The subject of series [2] is S. gordonii DL1 (wild-type). Put plainly: Selection for peptide resistance, serial MIC assays. The format is cell-based, Streptococcus gordonii. The following applies: repeated treatment with sub-inhibitory concentrations, 2–3 experiments. How it is done: (§3) To investigate potential resistance development against the GL13K peptides, dilutions of the peptides were prepared and incubated as described for the MIC assay. The next day (day 0), the MIC was recorded and the culture in the well with the highest peptide concentration that allowed growth (i.e 0.5 x MIC) was diluted 1:100 and used as an inoculum for the next round of selection in a new MIC assay and so forth until a stable plateau of resistance was reached.
(§4) Fig 6 Development of resistance in S. gordonii. MICs for L-GL13K (circles) and D-GL13K (squares) were recorded on consecutive days using S. gordonii DL1 (wild-type) (open symbols) (D-enantiomer only) and dltA (closed symbols). The MIC for each day is expressed relative to the starting MIC (day 0). Data from 2–3 experiments are shown as mean ± range.

Series [3] concerns S. gordonii dltA mutant. The description is as above. In kind it is cell-based, Streptococcus gordonii. The following applies: repeated treatment with sub-inhibitory concentrations, 2–3 experiments. How it is done:
as §3, §4

Series [4] deals with vancomycin-resistant E. faecalis V583 biofilm. Put plainly: Biofilm assay (Calgary device). The following applies: 24 h biofilm of V583, peptide 100 mg/L, 4 h, CFU enumerated. The format is cell-based, Enterococcus faecalis. How it is done: (§5) E. faecalis OG1RF, TX5427 or V583 were cultured in a Calgary device for 24h in THB. Biofilms were treated with peptides (100 mg/L) for 4h and surviving cells were sonicated and plated on THA for enumeration of CFUs.
(§6) Fig 3 Effect of GL13K peptides on biofilms of E. faecalis. Twenty-four hour biofilms of OG1RF; OG1RF dltA or V583 were treated with 100 mg/L of L-GL13K (L) or D-GL13K (D). Surviving CFU were enumerated from each peg and expressed relative to the mean CFU recovered from pegs of wild-type cells treated with buffer alone (OG1RF—C). Data from 2–4 experiments are expressed as mean ± SEM (N = 6–13). V583 was only treated with D-GL13K.

Series [5] deals with E. faecalis OG1RF biofilm. Put plainly: Biofilm assay (Calgary device). The following applies: 24 h biofilm of OG1RF, peptide 100 mg/L, 4 h, CFU enumerated. In kind it is cell-based, Enterococcus faecalis. How it is done:
as §5, §6

The test system of series [6] is E. faecalis OG1RF dltA (TX5427) biofilm. Put plainly: Biofilm assay (Calgary device). In kind it is cell-based, Enterococcus faecalis. The conditions noted are these: 24 h biofilm of OG1RF dltA, peptide 100 mg/L, 4 h, CFU relative to the wild-type biofilm. The method, then:
as §5, §6

For series [7], the system named is wild-type E. faecalis. Put plainly: Bactericidal activity in sodium phosphate buffer. The conditions noted are these: 10^8 CFU/ml wild-type E. faecalis, no energy source, 10 mM sodium-phosphate pH 7.4, 2 h, 37°C, spotted on THA; D N = 4, L N = 3. In kind it is cell-based, Enterococcus faecalis. How it is done:
These assays were performed according to our established protocol with some modifications. Cells were washed three times in 0.9% NaCl and five μl of washed cells (10^9 CFU/ml) were added to the peptides diluted 2-fold (128 to 4 mg/L) in 45 μl of 10 mM sodium-phosphate, pH 7.4. The samples were incubated at 37°C for 2 h and 10 μl were then spotted on THA plates to assess bactericidal activity.

For series [8], the system named is conditioned supernatant of protease-deficient E. faecalis (TX5128). Put plainly: Proteolysis of peptide by conditioned culture supernatant (P. aeruginosa Xen41 bioassay). The format is in vitro ADME, Enterococcus faecalis. The conditions noted are these: conditioned sterile-filtered supernatant of protease-deficient E. faecalis TX5128, peptide 32 mg/L, 2 h, 37°C; bioluminescence read-out after 15 min; three independent experiments. How it is done:
To test proteolytic processing of GL13K peptides, overnight bacterial cultures were centrifuged (5 min, 13,000 g) and the conditioned supernatants were sterile-filtered (0.22 μm, Corning). Filtered supernatant (16.8 μl) was incubated with 3.2 μl (3.2 μg) peptide at 37°C for 2 h to allow bacterial proteases in the supernatant to process the peptide. To determine residual peptide activity, 70 μl of 10 mM sodium phosphate buffer, pH 7.4 was added to each sample and then supplemented with 10 μl (10^8 CFU) of bioluminescent Pseudomonas aeruginosa Xen41 (Caliper Lifesciences; now Perkin Elmer, MA) that had been washed three times in 0.9% NaCl (final maximal peptide concentration 32 mg/L). Viability of the indicator bacteria was determined after 15 min incubation at 37°C by determining bioluminescence in a Synergy HT plate reader. The luminescence detected in the absence of added peptide was used as a measure of 100% proteolysis.
Fig 1 Relative proteolysis of GL13K peptides. (A): Wild-type (OG1RF) or the protease-negative strain (TX5128) of E. faecalis was cultured on THA containing 3% gelatin. Gelatinase activity was visualized as a turbid halo around the bacterial colonies; (B): L-GL13K (L) or D-GL13K (D) (32 mg/L) was incubated with conditioned supernatant of wild-type (OG1RF) or the protease-negative strain (TX5128) of E. faecalis for 2 h. Residual peptide activity was determined by adding bioluminescent P. aeruginosa Xen41 to the mixture. Bioluminescence from surviving bacteria was used as a measure of proteolytic degradation of each peptide and expressed relative to bacterial bioluminescence in the absence of peptides (equivalent to 100% proteolysis). Data are shown as mean ± SEM from three independent experiments and were analyzed by paired t-test for each strain. n.s., not significant.

In series [9] the test system is wild-type E. faecalis (OG1RF). Put plainly: Selection for peptide resistance, serial MIC assays. The following applies: serial passage at 0.5 x MIC. The format is cell-based, Enterococcus faecalis. How it is done:
as §3
(§7) Fig 4 Development of resistance in E. faecalis. MICs for L-GL13K (circles) and D-GL13K (squares) were recorded on consecutive days using E. faecalis OG1RF (wild-type) (open symbols) (D-enantiomer only) and dltA (closed symbols). The MIC for each day is expressed relative to the starting MIC (day 0). Data from three experiments are shown as mean ± SEM.

In series [10] the test system is E. faecalis dltA mutant (TX5427). The description is as above. In kind it is cell-based, Enterococcus faecalis. The following applies: serial passage at 0.5 x MIC, L-GL13K after two rounds, D-GL13K after seven rounds, three experiments. How it is done: as §3, §7
Series [11] concerns E. faecalis OG1RF. Put plainly: Bactericidal activity in PBS+0.05% Triton X-100. The format is cell-based, Enterococcus faecalis. The following applies: PBS+0.05% Triton X-100, peptide 100 mg/L, 2 h, CFU on THA, N = 5. How it is done:
as §1, §2

As to `CC[C@@H](C)[C@@H](NC(=O)[C@@H](CCCCN)NC(=O)CN)C(=O)N[C@@H](C(=O)N[C@H](CCCCN)C(=O)N[C@H](CC(C)C)C(=O)N[C@H](CCCCN)C(=O)N[C@H](C)C(=O)N[C@H](CO)C(=O)N[C@H](CC(C)C)C(=O)N[C@H](CCCCN)C(=O)N[C@H](CC(C)C)C(=O)N[C@H](CC(C)C)C(N)=O)[C@H](C)CC` [D-GL13K] (H-G[dK][dI][dI][dK][dL][dK][dA][dS][dL][dK][dL][dL]-NH2; N-terminus and C-terminus assumed), the “Effect on Triton X-100 induced autolysis (OD600)” value in [1] is “no autolysis was seen”. The “Increase of MIC relative to starting MIC (day 0)” value is reported as “little change of the MIC” in [2], “little change of the MIC” in [3], “did not substantially increase the MIC” in series [9] and 2 fold in series [10]. Also, the results for the “Reduction of viable biofilm CFU” value in series [4], in series [5] and in series [6] were 3 log10, 3 log10 and “highly effective”, respectively. Besides, the “Peptide concentration required for complete killing” value in [7] came to 15 ± 10 mg/L. The “Proteolysis of peptide (loss of activity against bioluminescent P. aeruginosa Xen41)” value in series [8] is “did not show significant proteolysis”. Moreover, in [11], the “Reduction of viable cells under autolysis conditions” value turned out to be 3 log10.

Values taken from paper PMC5864073, “A D-enantiomer of the antimicrobial peptide GL13K evades antimicrobial resistance in the Gram positive bacteria Enterococcus faecalis and Streptococcus gordonii” (PLoS ONE, 2018).
